A short description of data set [1]: The drug is tested on WLS-098 corresponding to human gut metagenome with ENA study accession number: PRJEB37062 and ENA sample accession number: ERS12561754 for biotransformation under anaerobic condition. The drug concentrations were measured over 9 timepoints collected between 0 and 24 hours of incubation by liquid-chromatography-coupled mass spectrometry (LC–MS). The following applies: 2 µM.

Data set [2] in a line: The drug is tested on WLS-090 corresponding to human gut metagenome with ENA study accession number: PRJEB37062 and ENA sample accession number: ERS12561753 for biotransformation under anaerobic condition. The drug concentrations were measured over 9 timepoints collected between 0 and 24 hours of incubation by liquid-chromatography-coupled mass spectrometry (LC–MS). The following applies: 2 µM.

For data set [3] the following is noted: human gut metagenome, 24 h, 2 µM.
For data set [4] the following is noted: human gut metagenome, 24 h, 2 µM. This is another data set of the same source.
The conditions of data set [5]: human gut metagenome, 24 h, 2 µM. The source holds these as a separate data set.
The conditions of data set [6]: human gut metagenome, 24 h, 2 µM. The source holds these as a separate data set.
A short description of data set [7]: The drug is tested on Z-017 corresponding to mouse gut metagenome with ENA study accession number: PRJEB37062 and ENA sample accession number: ERS12561816 for biotransformation under anaerobic condition. The drug concentrations were measured over 9 timepoints collected between 0 and 24 hours of incubation by liquid-chromatography-coupled mass spectrometry (LC–MS). The following applies: 2 µM.

For data set [8] the following is noted: human gut metagenome, 24 h, 2 µM. This is another data set of the same source.
A short description of data set [9]: The drug is tested on Z-008 corresponding to metagenome with ENA study accession number: PRJEB37062 and ENA sample accession number: ERS12561808 for biotransformation under anaerobic condition. The drug concentrations were measured over 9 timepoints collected between 0 and 24 hours of incubation by liquid-chromatography-coupled mass spectrometry (LC–MS). The following applies: 2 µM.

Data set [10] in a line: The drug is tested on Z-019 corresponding to rat gut metagenome with ENA study accession number: PRJEB37062 and ENA sample accession number: ERS12561818 for biotransformation under anaerobic condition. The drug concentrations were measured over 9 timepoints collected between 0 and 24 hours of incubation by liquid-chromatography-coupled mass spectrometry (LC–MS). Particulars: 2 µM.

The nature of data set [11]: The drug is tested on WLS-010 corresponding to human gut metagenome with ENA study accession number: PRJEB37062 and ENA sample accession number: ERS12561743 for biotransformation under anaerobic condition. The drug concentrations were measured over 9 timepoints collected between 0 and 24 hours of incubation by liquid-chromatography-coupled mass spectrometry (LC–MS). The following applies: 2 µM.

Data set [12] in a line: The drug is tested on WLS-052 corresponding to human gut metagenome with ENA study accession number: PRJEB37062 and ENA sample accession number: ERS12561747 for biotransformation under anaerobic condition. The drug concentrations were measured over 9 timepoints collected between 0 and 24 hours of incubation by liquid-chromatography-coupled mass spectrometry (LC–MS). Particulars: 2 µM.

Data set [13] in a line: The drug is tested on Z-009 corresponding to pig gut metagenome with ENA study accession number: PRJEB37062 and ENA sample accession number: ERS12561809 for biotransformation under anaerobic condition. The drug concentrations were measured over 9 timepoints collected between 0 and 24 hours of incubation by liquid-chromatography-coupled mass spectrometry (LC–MS). Particulars: 2 µM.

The conditions of data set [14]: human gut metagenome, 24 h, 2 µM. This is another data set of the same source.
The nature of data set [15]: The drug is tested on Z-005 corresponding to metagenome with ENA study accession number: PRJEB37062 and ENA sample accession number: ERS12561805 for biotransformation under anaerobic condition. The drug concentrations were measured over 9 timepoints collected between 0 and 24 hours of incubation by liquid-chromatography-coupled mass spectrometry (LC–MS). Particulars: 2 µM.

For data set [16] the following is noted: human gut metagenome, 24 h, 2 µM. This is another data set of the same source.
The nature of data set [17]: The drug is tested on WLS-350 corresponding to human gut metagenome with ENA study accession number: PRJEB37062 and ENA sample accession number: ERS12561789 for biotransformation under anaerobic condition. The drug concentrations were measured over 9 timepoints collected between 0 and 24 hours of incubation by liquid-chromatography-coupled mass spectrometry (LC–MS). The following applies: 2 µM.

Data set [18] can be described thus: The drug is tested on Z-016 corresponding to mouse gut metagenome with ENA study accession number: PRJEB37062 and ENA sample accession number: ERS12561815 for biotransformation under anaerobic condition. The drug concentrations were measured over 9 timepoints collected between 0 and 24 hours of incubation by liquid-chromatography-coupled mass spectrometry (LC–MS). Particulars: 2 µM.

Data set [19] is described as follows: The drug is tested on Z-007 corresponding to rat gut metagenome with ENA study accession number: PRJEB37062 and ENA sample accession number: ERS12561807 for biotransformation under anaerobic condition. The drug concentrations were measured over 9 timepoints collected between 0 and 24 hours of incubation by liquid-chromatography-coupled mass spectrometry (LC–MS). The following applies: 2 µM.

For data set [20] the following is noted: human gut metagenome, 24 h, 2 µM. This is another data set of the same source.
Further: call rule not given here.

In the case of `CC(C)c1nc(N(C)S(C)(=O)=O)nc(-c2ccc(F)cc2)c1/C=C/[C@@H](O)C[C@@H](O)CC(=O)[O-].CC(C)c1nc(N(C)S(C)(=O)=O)nc(-c2ccc(F)cc2)c1/C=C/[C@@H](O)C[C@@H](O)CC(=O)[O-].[Ca+2]` [ROSUVASTATIN CALCIUM], the “Bacterial Biotransformation” value is “Compound metabolized” in [1]; “Compound metabolized” in data set [2]; “Compound NOT metabolized” in data set [3]; “Compound metabolized” in [4]; “Compound NOT metabolized” in [5]; “Compound metabolized” in data set [6]. Moreover, the “Bacterial Biotransformation” value in [7] is “Compound NOT metabolized”; in data set [8], “Compound NOT metabolized”; in data set [9], “Compound NOT metabolized”; in data set [10] it was “Compound NOT metabolized”; in data set [11], “Compound metabolized”; in data set [12], “Compound metabolized”. Further, the “Bacterial Biotransformation” value in data set [13] is “Compound NOT metabolized”; in [14] it was “Compound metabolized”; in [15] it was “Compound NOT metabolized”; in data set [16], “Compound metabolized”; in [17] it was “Compound metabolized”; in data set [18], “Compound NOT metabolized”. For the same molecule, the “Bacterial Biotransformation” value in [19] and in [20] was “Compound NOT metabolized” each time.
For `C=CC[C@@H]1/C=C(\C)C[C@H](C)C[C@H](OC)[C@H]2O[C@@](O)(C(=O)C(=O)N3CCCC[C@H]3C(=O)O[C@H](/C(C)=C/[C@@H]3CC[C@@H](O)[C@H](OC)C3)[C@H](C)[C@@H](O)CC1=O)[C@H](C)C[C@@H]2OC.O` [TACROLIMUS], the “Bacterial Biotransformation” value in data set [1] is “Compound NOT metabolized”; in data set [2], “Compound metabolized”; in [3] it was “Compound NOT metabolized”; in data set [4], “Compound metabolized”; in data set [5] it was “Compound metabolized”; in data set [6], “Compound metabolized”. For the same molecule, the “Bacterial Biotransformation” value is given as “Compound NOT metabolized” in data set [7]; “Compound metabolized” in data set [8]; “Compound NOT metabolized” in [9]; “Compound NOT metabolized” in data set [10]; “Compound metabolized” in data set [11]; “Compound metabolized” in data set [12]. The “Bacterial Biotransformation” value is given as “Compound NOT metabolized” in [13]; “Compound metabolized” in [14]; “Compound NOT metabolized” in [15]; “Compound metabolized” in [16]; “Compound NOT metabolized” in data set [17]; “Compound NOT metabolized” in data set [18]. For the same molecule, the “Bacterial Biotransformation” value in data set [19] was “Compound NOT metabolized”; in data set [20] it was “Compound metabolized”.
For the molecule `CCS(=O)(=O)CCn1c([N+](=O)[O-])cnc1C` [TINIDAZOLE], the “Bacterial Biotransformation” value in data set [1], in data set [2], in data set [3], in data set [4], in data set [5] and in [6] was “Compound metabolized” each time. For the same molecule, the “Bacterial Biotransformation” value in [7], in data set [8], in data set [9], in data set [10], in data set [11] and in [12] was “Compound metabolized” throughout. In addition, the “Bacterial Biotransformation” value in [13], in data set [14], in data set [15], in data set [16], in data set [17] and in data set [18] was “Compound metabolized” throughout. In addition, the “Bacterial Biotransformation” value in data set [19] and in [20] was “Compound metabolized” each time.
For `COc1ccc(CN2CCNCC2)c(OC)c1OC.Cl.Cl` [TRIMETAZIDINE DIHYDROCHLORIDE], the “Bacterial Biotransformation” value in data set [1], in data set [2], in data set [3], in data set [4], in [5] and in [6] was “Compound NOT metabolized” in each case. Further, the “Bacterial Biotransformation” value in data set [7], in data set [8], in data set [9], in data set [10], in [11] and in [12] was “Compound NOT metabolized” each time. Further, the “Bacterial Biotransformation” value in data set [13], in data set [14], in data set [15], in data set [16], in data set [17] and in data set [18] was “Compound NOT metabolized” throughout. Also, the “Bacterial Biotransformation” value in data set [19] and in [20] was “Compound NOT metabolized” in each case.
On to `CN1[C@@H]2CC[C@H]1C[C@@H](OC(=O)c1c[nH]c3ccccc13)C2` [TROPISETRON], for which the “Bacterial Biotransformation” value in [1] is reported as “Compound NOT metabolized”; in data set [2], “Compound metabolized”; in data set [3] it was “Compound NOT metabolized”; in data set [4] it was “Compound NOT metabolized”; in data set [5], “Compound NOT metabolized”; in data set [6] it was “Compound NOT metabolized”. Also, the “Bacterial Biotransformation” value in data set [7], in data set [8], in data set [9], in [10], in data set [11] and in data set [12] was “Compound NOT metabolized” in each case. In addition, the “Bacterial Biotransformation” value in data set [13], in [14], in data set [15], in data set [16], in data set [17] and in data set [18] was “Compound NOT metabolized” in each case. The “Bacterial Biotransformation” value in [19] and in [20] was “Compound NOT metabolized” in each case.
